According to ChEMBL document CHEMBL4706519, “Evaluation of N-phenyl-2-aminothiazoles for treatment of multi-drug resistant and intracellular Staphylococcus aureus infections” (Eur J Med Chem, 2020):
Converted amounts (≈) assume the structure as drawn.

What was measured:
Staphylococcus aureus [1] = experiment: Antibacterial activity against vancomycin-resistant Staphylococcus aureus 12 assessed as inhibition of bacterial growth measured after 18 to 20 hrs by CLSI protocol based broth microdilution method; type: functional; conditions: time 18-20 hrs
[2] = Selectivity index, ratio of maximum non-toxic concentration for human Caco-2 cells to MIC for methicillin-resistant Staphylococcus aureus USA300 NRS384; type: toxicity
[3] = Selectivity index, ratio of maximum non-toxic concentration for human Caco-2 cells to MIC for methicillin-resistant Staphylococcus aureus NRS119; type: toxicity
Streptococcus pneumoniae [4] = experiment: Ratio of MBC to MIC for methicillin-resistant Streptococcus pneumoniae ATCC 700677 assessed as inhibition of bacterial growth measured after 18 to 20 hrs by CLSI protocol based broth microdilution method; type: functional; conditions: time 18-20 hrs
[5] = system: Staphylococcus epidermidis; experiment: Ratio of MBC to MIC for methicillin-resistant Staphylococcus epidermidis NRS101 assessed as inhibition of bacterial growth measured after 18 to 20 hrs by CLSI protocol based broth microdilution method; type: functional; conditions: time 18-20 hrs
Staphylococcus aureus [6] = experiment: microbe, parasite or virus in culture; conditions: USA700 NRS386
Staphylococcus aureus [7] = experiment: Antibacterial activity against methicillin-resistant Staphylococcus aureus USA400 NRS123 infected in mouse J774 cells assessed as log reduction in intracellular bacterial burden at 4 x MIC measured after 24 hrs; type: functional
Enterococcus faecalis [8] = experiment: Ratio of MBC to MIC for vancomycin-resistant Enterococcus faecalis ATCC 51299 assessed as inhibition of bacterial growth measured after 18 to 20 hrs by CLSI protocol based broth microdilution method; type: functional; conditions: time 18-20 hrs
Enterococcus faecium [9] = experiment: Antibacterial activity against vancomycin-resistant Enterococcus faecium ATCC 700221 assessed as inhibition of bacterial growth measured after 18 to 20 hrs by CLSI protocol based broth microdilution method; type: functional; conditions: time 18-20 hrs
Staphylococcus aureus [10] = experiment: Bactericidal activity against methicillin-resistant Staphylococcus aureus USA400 NRS123 assessed as log reduction in viable bacteria count at 5 times MIC incubated for 2 hrs in soy broth followed by incubation for 18 to 20 hrs on agar plate by time kill assay; type: functional; conditions: time 20-22 hrs
Escherichia coli [11] = experiment: Antibacterial activity against Escherichia coli JW55031 harboring toIC efflux mutant assessed as inhibition of bacterial growth measured after 18 to 20 hrs by broth microdilution method; type: functional; conditions: time 18-20 hrs
Staphylococcus aureus [12] = experiment: microbe, parasite or virus in culture; conditions: USA400 NRS123
Staphylococcus aureus [13] = experiment: microbe, parasite or virus in culture; conditions: USA500 NRS385
Escherichia coli [14] = experiment: Antibacterial activity against wild type Escherichia coli BW25113 assessed as inhibition of bacterial growth measured after 18 to 20 hrs by broth microdilution method; type: functional; conditions: time 18-20 hrs
Staphylococcus aureus [15] = experiment: Antibacterial activity against methicillin-resistant Staphylococcus aureus USA400 NRS123 infected in mouse J774 cells assessed as log reduction in intracellular bacterial burden at 2 x MIC measured after 24 hrs; type: functional
Streptococcus pneumoniae [16] = experiment: Antibacterial activity against methicillin-resistant Streptococcus pneumoniae ATCC 700677 assessed as inhibition of bacterial growth measured after 18 to 20 hrs by CLSI protocol based broth microdilution method; type: functional; conditions: time 18-20 hrs
Staphylococcus aureus [17] = experiment: microbe, parasite or virus in culture; conditions: NRS119
Staphylococcus aureus [18] = experiment: Bactericidal activity against methicillin-resistant Staphylococcus aureus USA400 NRS123 assessed as post-antibiotic effect at 5 times MIC incubated for 2 hrs followed by compound wash-out by viable plate count method; type: functional
Staphylococcus aureus [19] = experiment: microbe, parasite or virus in culture; conditions: ATCC 6538
[20] = Selectivity index, ratio of maximum non-toxic concentration for human Caco-2 cells to MIC for methicillin-resistant Staphylococcus aureus USA500 NRS385; type: toxicity
Staphylococcus aureus [21] = experiment: microbe, parasite or virus in culture; conditions: NRS107
Listeria monocytogenes [22] = experiment: Antibacterial activity against Listeria monocytogenes ATCC 19111 assessed as inhibition of bacterial growth measured after 18 to 20 hrs by CLSI protocol based broth microdilution method; type: functional; conditions: time 18-20 hrs
Staphylococcus aureus [23] = experiment: Antibacterial activity against methicillin-resistant Staphylococcus aureus USA400 NRS123 infected in mouse J774 cells assessed as reduction in intracellular bacterial burden at 2 x MIC measured after 24 hrs relative to control; type: functional
J774 = experiment: Cytotoxicity against mouse J774 cells assessed as cell viability at 32 ug/ml incubated for 2 hrs by MTS assay; type: cell-based; conditions: j774, 2 h, dose 32 µg/ml
Staphylococcus aureus [24] = experiment: Ratio of MBC to MIC against methicillin-sensitive Staphylococcus aureus NRS107 assessed as inhibition of bacterial growth measured after 18 to 20 hrs by CLSI protocol based broth microdilution method; type: functional; conditions: time 18-20 hrs
Staphylococcus aureus [25] = experiment: Bactericidal activity against methicillin-resistant Staphylococcus aureus USA400 NRS123 assessed as eradication of bacterial count at 5 times MIC incubated for 2 hrs in soy broth followed by incubation for 18 to 20 hrs on agar plate by time kill assay; type: functional; conditions: time 20-22 hrs
[26] = Selectivity index, ratio of maximum non-toxic concentration for human Caco-2 cells to MIC for methicillin-resistant Staphylococcus aureus USA700 NRS386; type: toxicity
Staphylococcus aureus [27] = experiment: Antibacterial activity against vancomycin-resistant Staphylococcus aureus 10 assessed as inhibition of bacterial growth measured after 18 to 20 hrs by CLSI protocol based broth microdilution method; type: functional; conditions: time 18-20 hrs
Staphylococcus aureus [28] = experiment: Ratio of MBC to MIC against methicillin-sensitive Staphylococcus aureus ATCC 6538 assessed as inhibition of bacterial growth measured after 18 to 20 hrs by CLSI broth microdilution method; type: functional; conditions: time 18-20 hrs
Staphylococcus aureus [29] = experiment: Ratio of MIC for methicillin-resistant Staphylococcus aureus USA400 NRS123 measured after 14th passage to MIC for methicillin-resistant Staphylococcus aureus USA400 NRS123 measured after 18 to 20 hrs by broth microdilution assay; type: functional
[30] = Cytotoxicity against human Caco-2 cells assessed as cell viability at 32 ug/ml incubated for 2 hrs by MTS assay relative to control; type: cell-based; conditions: at 32 µg/mL, read-out: Activity
Streptococcus pneumoniae [31] = experiment: Ratio of MBC to MIC for cephalosporin-resistant Streptococcus pneumoniae ATCC 51916 assessed as inhibition of bacterial growth measured after 18 to 20 hrs by CLSI protocol based broth microdilution method; type: functional; conditions: time 18-20 hrs
[32] = Selectivity index, ratio of maximum non-toxic concentration for human Caco-2 cells to MIC for methicillin-resistant Staphylococcus aureus USA400 NRS123; type: toxicity
Listeria monocytogenes [33] = experiment: Ratio of MBC to MIC for Listeria monocytogenes ATCC 19111 assessed as inhibition of bacterial growth measured after 18 to 20 hrs by CLSI protocol based broth microdilution method; type: functional; conditions: time 18-20 hrs
Staphylococcus aureus [34] = experiment: Ratio of MIC for methicillin-resistant Staphylococcus aureus USA400 NRS123 measured after 7th passage to MIC for methicillin-resistant Staphylococcus aureus USA400 NRS123 measured after 18 to 20 hrs by broth microdilution assay; type: functional
Staphylococcus aureus [35] = experiment: Antibacterial activity against methicillin-resistant Staphylococcus aureus USA300 NRS384 assessed as inhibition of bacterial growth measured after 18 to 20 hrs by broth microdilution method; type: functional; conditions: time 18-20 hrs
Staphylococcus aureus [36] = experiment: Antibacterial activity against methicillin-resistant Staphylococcus aureus USA400 NRS123 infected in mouse J774 cells assessed as reduction in intracellular bacterial burden at 4 x MIC measured after 24 hrs relative to control; type: functional
Enterococcus faecalis [37] = experiment: microbe, parasite or virus in culture; conditions: ATCC 51299
Enterococcus faecium [38] = experiment: Ratio of MBC to MIC for vancomycin-resistant Enterococcus faecium ATCC 700221 assessed as inhibition of bacterial growth measured after 18 to 20 hrs by CLSI protocol based broth microdilution method; type: functional; conditions: time 18-20 hrs
Streptococcus pneumoniae [39] = experiment: Antibacterial activity against cephalosporin-resistant Streptococcus pneumoniae ATCC 51916 assessed as inhibition of bacterial growth measured after 18 to 20 hrs by CLSI protocol based broth microdilution method; type: functional; conditions: time 18-20 hrs
[40] = system: Staphylococcus epidermidis; experiment: Antibacterial activity against methicillin-resistant Staphylococcus epidermidis NRS101 assessed as inhibition of bacterial growth measured after 18 to 20 hrs by CLSI protocol based broth microdilution method; type: functional; conditions: time 18-20 hrs

In the case of `C/C(=N\NC(=N)N)c1ccc(Nc2nc(-c3ccc(Cl)cc3)cs2)cc1`, the MBC (Staphylococcus aureus [1]) is reported as 1 µg/mL (≈ 2.6 µM), the MIC (Staphylococcus aureus [1]) is reported as 1 µg/mL (≈ 2.6 µM) and the selectivity ratio [2] is reported as 16. It also gave a selectivity ratio [3] of 16, a Ratio (Streptococcus pneumoniae [4]) of 1 and a Ratio [5] of 1. It also gave an MBC (Staphylococcus aureus [6]) of 4 µg/mL (≈ 10.4 µM), an MIC (Staphylococcus aureus [6]) of 1 µg/mL (≈ 2.6 µM) and an Activity (Staphylococcus aureus [7]) of 1.56 log10CFU/ml. For the same compound, the Ratio (Enterococcus faecalis [8]) was 1, the MBC (Enterococcus faecium [9]) was 2 µg/mL (≈ 5.2 µM) and the MIC (Enterococcus faecium [9]) was 1 µg/mL (≈ 2.6 µM). The Activity (Staphylococcus aureus [10]) was 3 log10CFU/ml, the MIC (Escherichia coli [11]) was 8 µg/mL (≈ 20.8 µM) and the MBC (Staphylococcus aureus [12]) was 1 µg/mL (≈ 2.6 µM). It also gave an MIC (Staphylococcus aureus [12]) of 1 µg/mL (≈ 2.6 µM), an MBC (Staphylococcus aureus [13]) of 2 µg/mL (≈ 5.2 µM) and an MIC (Staphylococcus aureus [13]) of 1 µg/mL (≈ 2.6 µM). The MIC (Escherichia coli [14]) was 8 µg/mL (≈ 20.8 µM), the Activity (Staphylococcus aureus [15]) was 0.51 log10CFU/ml and the MBC (Streptococcus pneumoniae [16]) was 4 µg/mL (≈ 10.4 µM). The MIC (Streptococcus pneumoniae [16]) was 2 µg/mL (≈ 5.2 µM), the MBC (Staphylococcus aureus [17]) was 1 µg/mL (≈ 2.6 µM) and the MIC (Staphylococcus aureus [17]) was 1 µg/mL (≈ 2.6 µM). The PAE (Staphylococcus aureus [18]) was 4 h, the MBC (Staphylococcus aureus [19]) was 1 µg/mL (≈ 2.6 µM) and the MIC (Staphylococcus aureus [19]) was 1 µg/mL (≈ 2.6 µM). For the same compound, the selectivity ratio [20] was 16, the MBC (Staphylococcus aureus [21]) was 1 µg/mL (≈ 2.6 µM) and the MIC (Staphylococcus aureus [21]) was 1 µg/mL (≈ 2.6 µM). The MBC (Listeria monocytogenes [22]) was 2 µg/mL (≈ 5.2 µM), the MIC (Listeria monocytogenes [22]) was 1 µg/mL (≈ 2.6 µM) and the “inhibition (INH)” value (Staphylococcus aureus [23]) was 69%. For the same compound, the Activity (J774) was “Non-Toxic”, the Ratio (Staphylococcus aureus [24]) was 1 and the Activity (Staphylococcus aureus [25]) was 100%. It also gave a selectivity ratio [26] of 16, an MBC (Staphylococcus aureus [27]) of 1 µg/mL (≈ 2.6 µM) and an MIC (Staphylococcus aureus [27]) of 1 µg/mL (≈ 2.6 µM). The Ratio (Staphylococcus aureus [28]) was 1, the Ratio (Staphylococcus aureus [29]) was 3 and the viability at 2 h, 32 ug/ml [30] was 100%. The Ratio (Streptococcus pneumoniae [31]) was 1, the selectivity ratio [32] was 16 and the Ratio (Listeria monocytogenes [33]) was 1. The Ratio (Staphylococcus aureus [34]) was 1, the MIC (Staphylococcus aureus [35]) was 4 µg/mL (≈ 10.4 µM) and the “inhibition (INH)” value (Staphylococcus aureus [36]) was 97%. For the same compound, the MBC (Enterococcus faecalis [37]) was 4 µg/mL (≈ 10.4 µM), the MIC (Enterococcus faecalis [37]) was 1 µg/mL (≈ 2.6 µM) and the Ratio (Enterococcus faecium [38]) was 1. For the same compound, the MBC (Streptococcus pneumoniae [39]) was 4 µg/mL (≈ 10.4 µM), the MIC (Streptococcus pneumoniae [39]) was 2 µg/mL (≈ 5.2 µM) and the MBC [40] was 1 µg/mL (≈ 2.6 µM). For the same compound, the MIC [40] was 1 µg/mL (≈ 2.6 µM).
